Laboratory results: US20040006136A1, “Anthelmintics for preventing parasitic infections in human and animals” (priority 2000, published 2004)

Legend:
[1] = test system: cercariae of Schistosoma mansoni; settings: topical, monkeys; Bruce et al. 1992; cited from earlier work
[2] = test system: cercariae of Schistosoma mansoni; settings: Fripp and Armstrong 1973; cited from earlier work
[3] = test system: cercariae of Schistosoma mansoni; settings: topical agent; Salafsky et al. 1998; cited from earlier work
[4] = test system: Schistosoma mansoni cercariae; test: Activity against Schistosoma mansoni cercariae (survival/mobility in water); format: cell-based; settings: 500 μl/l final concentration of the active compound; PEG300/aquarium water; test period of 120 minutes
Protocol: Activity Against Schistosoma mansoni cercariae
[500 μl/l Final Concentration of the Active Compounds]
Snails (Biomphalaria glabrata) were infected by incubating each of them with 8 miracidia in 10 ml of water overnight. About 6 to 9 weeks after the infection, cercariae were obtained by irradiating the snails, which had been kept in darkness, with light, followed by collection of the swarming cercariae within 2 hours.
Such an amount of cercariae-containing water (1 or 2 ml, see below) was added to the test batches that each batch contained about 100 to 150 cercariae.
5 μl of active compound were mixed thoroughly with 25 μl of PEG300. 9 ml of aquarium water was then added, and the batch was shaken vigorously. After (delayed) addition of 1 ml of cercariae suspension, survival of the cercariae was in each case observed immediately using a stereomagnifier.

O=C(Nc1ccc([N+](=O)[O-])cc1Cl)c1cc(Cl)ccc1O [Niclosamide]
action against the penetration of cercariae [1]: acts against the penetration of cercariae

Oc1c(Cl)cc(Cl)c(Cl)c1Cc1c(O)c(Cl)cc(Cl)c1Cl [hexachlorophene]
effect on cercariae of Schistosoma mansoni [2]: lethal effect

CCN(CC)C(=O)c1cccc(C)c1 [N,N-Diethyl-m-toluamide (DEET), N,N-Diethyl-m-toluamide]
action against cercariae of Schistosoma mansoni [3]: acts against cercariae

CCCCOC(=O)CN(CCCC)C(C)=O
activity of the active compounds against cercariae (classification 0-3) [4]: 1
